Patent US20250101029A1, “ORGANIC COMPOUNDS” (INTRA-CELLULAR THERAPIES, INC., priority 2022, published 2025)

How the values were obtained:
Conditions in all cases: qualitative statement
SERT = SERT (Homo sapiens, UniProt P31645); experiment: Receptor binding, SERT
5-HT2A = 5-HT2A (Homo sapiens, UniProt P28223); experiment: Receptor binding, 5-HT2A
D2 = D2 (Homo sapiens, UniProt P14416); experiment: Receptor binding, D2
D1 = D1 (Homo sapiens, UniProt P21728); experiment: Receptor binding, D1
Mu opiate receptor = Mu opiate receptor (Homo sapiens, UniProt P35372); experiment: Receptor binding, Mu opiate receptor
Sequence of Mu opiate receptor (P35372 whole entry): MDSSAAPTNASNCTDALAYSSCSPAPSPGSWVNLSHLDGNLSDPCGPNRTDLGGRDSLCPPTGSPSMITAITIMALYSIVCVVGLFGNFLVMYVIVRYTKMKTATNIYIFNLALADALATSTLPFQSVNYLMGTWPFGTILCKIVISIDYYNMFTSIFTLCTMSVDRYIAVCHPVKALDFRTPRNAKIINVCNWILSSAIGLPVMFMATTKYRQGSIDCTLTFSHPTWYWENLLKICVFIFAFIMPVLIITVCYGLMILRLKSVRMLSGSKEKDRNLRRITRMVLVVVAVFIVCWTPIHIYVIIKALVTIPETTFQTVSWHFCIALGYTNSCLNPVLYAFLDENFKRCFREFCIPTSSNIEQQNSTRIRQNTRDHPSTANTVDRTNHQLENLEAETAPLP

Sequence of SERT (P31645 whole entry): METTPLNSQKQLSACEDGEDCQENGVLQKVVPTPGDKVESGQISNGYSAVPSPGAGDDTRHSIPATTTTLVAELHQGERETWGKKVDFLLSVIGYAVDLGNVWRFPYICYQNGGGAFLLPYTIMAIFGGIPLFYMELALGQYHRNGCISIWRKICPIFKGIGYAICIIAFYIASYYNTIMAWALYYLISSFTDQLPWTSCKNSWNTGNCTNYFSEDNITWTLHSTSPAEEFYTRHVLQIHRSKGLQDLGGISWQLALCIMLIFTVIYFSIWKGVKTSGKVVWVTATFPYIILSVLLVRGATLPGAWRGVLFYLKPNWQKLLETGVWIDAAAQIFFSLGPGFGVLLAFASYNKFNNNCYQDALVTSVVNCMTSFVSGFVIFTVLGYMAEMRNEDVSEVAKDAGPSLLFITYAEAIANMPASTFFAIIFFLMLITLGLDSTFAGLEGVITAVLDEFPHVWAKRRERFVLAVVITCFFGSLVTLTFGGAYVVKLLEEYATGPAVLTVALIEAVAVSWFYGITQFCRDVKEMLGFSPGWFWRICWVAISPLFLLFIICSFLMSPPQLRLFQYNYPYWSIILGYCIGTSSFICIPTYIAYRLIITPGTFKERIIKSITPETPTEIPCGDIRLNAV
Sequence of D1 (P21728 whole entry): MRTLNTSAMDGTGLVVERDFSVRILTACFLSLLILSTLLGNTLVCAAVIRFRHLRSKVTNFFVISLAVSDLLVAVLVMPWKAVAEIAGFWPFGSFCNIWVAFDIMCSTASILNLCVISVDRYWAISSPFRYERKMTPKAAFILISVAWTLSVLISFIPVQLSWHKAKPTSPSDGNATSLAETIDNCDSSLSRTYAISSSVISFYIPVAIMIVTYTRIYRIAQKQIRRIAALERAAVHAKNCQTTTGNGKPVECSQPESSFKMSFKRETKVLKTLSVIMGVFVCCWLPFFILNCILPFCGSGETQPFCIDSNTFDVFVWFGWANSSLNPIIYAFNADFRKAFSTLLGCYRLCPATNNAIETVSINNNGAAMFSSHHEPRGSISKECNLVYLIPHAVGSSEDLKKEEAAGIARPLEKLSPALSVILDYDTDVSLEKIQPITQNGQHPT
Sequence of D2 (P14416 1-414 isoform P14416-2): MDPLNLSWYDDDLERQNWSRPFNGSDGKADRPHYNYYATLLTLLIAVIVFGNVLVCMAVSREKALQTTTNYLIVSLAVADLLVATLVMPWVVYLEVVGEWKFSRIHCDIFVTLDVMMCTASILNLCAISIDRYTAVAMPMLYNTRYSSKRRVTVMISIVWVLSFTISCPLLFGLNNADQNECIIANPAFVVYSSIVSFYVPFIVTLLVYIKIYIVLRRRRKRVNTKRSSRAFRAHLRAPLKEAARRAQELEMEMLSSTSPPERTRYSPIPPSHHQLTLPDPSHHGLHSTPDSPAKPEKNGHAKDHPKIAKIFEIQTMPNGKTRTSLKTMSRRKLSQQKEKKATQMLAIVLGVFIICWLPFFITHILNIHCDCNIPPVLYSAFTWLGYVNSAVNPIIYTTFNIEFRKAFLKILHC
Sequence of 5-HT2A (P28223 whole entry): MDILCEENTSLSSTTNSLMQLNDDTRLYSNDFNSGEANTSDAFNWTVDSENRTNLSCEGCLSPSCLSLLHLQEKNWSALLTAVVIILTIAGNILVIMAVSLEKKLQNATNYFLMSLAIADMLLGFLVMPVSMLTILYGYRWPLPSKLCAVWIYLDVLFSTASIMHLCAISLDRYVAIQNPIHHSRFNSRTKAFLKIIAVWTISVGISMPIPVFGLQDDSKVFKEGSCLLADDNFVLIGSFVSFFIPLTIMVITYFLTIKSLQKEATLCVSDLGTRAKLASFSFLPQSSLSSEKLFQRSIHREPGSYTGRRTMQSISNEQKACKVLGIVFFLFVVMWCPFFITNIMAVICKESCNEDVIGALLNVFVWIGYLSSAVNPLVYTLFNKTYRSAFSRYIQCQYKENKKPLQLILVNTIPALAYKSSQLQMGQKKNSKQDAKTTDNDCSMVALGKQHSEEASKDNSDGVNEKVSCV

O=C1CN2c3c(cccc3[C@@H]3CN(CCCOc4ccc(F)cc4)CC[C@@H]32)N1 [Compound A]
SERT activity, in words (SERT): very little SERT binding

O=C1CN2c3c(cccc3[C@H]3CN(CCCOc4ccc(F)cc4)CC[C@H]32)N1 [Compound B]
5-HT2A receptor activity, in words (5-HT2A): moderately strong
D2 receptor binding, in words (D2): weak D2 receptor affinity
D1 receptor binding, in words (D1): moderately strong D1 receptor binding
SERT activity, in words (SERT): no SERT activity
mu-opiate receptor binding, in words (Mu opiate receptor): only weak mu receptor activity

O=C1CN2c3c(cccc3[C@@H]3CN(CCCOc4ccc(F)cc4)CC[C@H]32)N1 (racemic) [Example 1, trans-8-(3-(4-fluorophenoxy)propyl)-6b,7,8,9,10,10a-hexahydro-1H-pyrido[3′,4′:4,5]pyrrolo[1,2,3-de]quinoxalin-2(3H)-one]
D2 receptor binding, in words (D2): moderate D2 receptor binding
D1 receptor binding, in words (D1): very strong
SERT activity, in words (SERT): no SERT activity
